{"source": "patent US20080070868A1", "about": "“Novel Thiazole Inhibitors of Fructose 1,6-bisphosphatase” (Metabasis Therapeutics, Inc., priority 2004, published 2008)", "note": "pIC50: −log10 of the molar value."}
{"target": "T1, human liver FBPase (Homo sapiens, UniProt P09467)", "T1 construct": "made in house; host or cells: E. coli BL21", "T1 sequence (P09467 2-338 limits assumed)": "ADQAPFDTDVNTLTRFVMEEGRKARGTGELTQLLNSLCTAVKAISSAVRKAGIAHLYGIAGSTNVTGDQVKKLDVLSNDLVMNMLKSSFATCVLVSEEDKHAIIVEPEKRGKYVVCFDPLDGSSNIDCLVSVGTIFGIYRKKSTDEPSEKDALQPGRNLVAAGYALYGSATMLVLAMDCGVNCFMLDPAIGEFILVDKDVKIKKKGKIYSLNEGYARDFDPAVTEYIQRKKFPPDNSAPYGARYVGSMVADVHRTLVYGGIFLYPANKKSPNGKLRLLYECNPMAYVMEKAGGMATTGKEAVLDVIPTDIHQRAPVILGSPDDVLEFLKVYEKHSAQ", "test": "Inhibition of human liver FBPase", "format": "biochemical", "conditions": "purified recombinant human liver FBPase, 0.150 mM fructose 1,6-bisphosphate, 37° C.; read-out: IC50 (hlFBPase)", "procedure": "E. coli strain BL21 transformed with a human liver FBPase-encoding plasmid was obtained from Dr. M. R. El-Maghrabi at the State University of New York at Stony Brook. […] Enzymatic activity was measured spectrophotometrically in reactions that coupled the formation of product (fructose 6-phosphate) to the reduction of dimethylthiazoldiphenyltetrazolium bromide (MTT) via NADP^+ and phenazine methosulfate (PMS), using phosphoglucose isomerase and glucose 6-phosphate dehydrogenase as the coupling enzymes. Reaction mixtures (200 μl) were made up in 96-well microtitre plates, and consisted of 50 mM Tris-HCl, pH 7.4, 100 mM KCl, 5 mM EGTA, 2 mM MgCl2, 0.2 mM NADP, 1 mg/ml BSA, 1 mM MTT, 0.6 mM PMS, 1 unit/ml phosphoglucose isomerase, 2 units/ml glucose 6-phosphate dehydrogenase, and 0.150 mM substrate (fructose 1,6-bisphosphate). Inhibitor concentrations were varied from 0.01 μM to 10 μM. Reactions were started by the addition of 0.002 units of pure hlFBPase, and were monitored for 7 min. at 590 nm in a Molecular Devices Plate Reader (37° C.)."}
{"smiles": "Nc1ncnc2c1ncn2[C@@H]1O[C@H](COP(=O)(O)O)[C@@H](O)[C@H]1O", "note": "[AMP, reference compound]", "pIC50": 6.00}
{"smiles": "Nc1nc(-c2ccc(P(=O)(O)O)o2)c(C(=O)C2CCCCC2)s1", "note": "[Compound 1.6, [5-(2-amino-5-cyclohexylcarbonyl-thiazol-4-yl)furan-2-yl]-phosphonic acid]", "pIC50": 7.40}
{"smiles": "Nc1nc(-c2ccc(P(=O)(O)O)o2)c(C(=O)c2cccs2)s1", "note": "[Compound 1.7, [5-(2-amino-5-(2-thienylcarbonyl)thiazol-4-yl)furan-2-yl]-phosphonic acid]", "pIC50": 7.39}
{"smiles": "Nc1nc(-c2ccc(P(=O)(O)O)o2)c(C(=O)c2cccc(F)c2)s1", "note": "[Compound 1.8, [5-(2-amino-5-(3-fluorobenzoyl)thiazol-4-yl)furan-2-yl]-phosphonic acid]", "pIC50": 7.43}
{"smiles": "Nc1nc(-c2ccc(P(=O)(O)O)o2)c(C(=O)c2ccc(Cl)cc2)s1", "note": "[Compound 1.9, [5-(2-amino-5-(4-chlorobenzoyl)thiazol-4-yl)furan-2-yl]-phosphonic acid]", "pIC50": 7.07}
{"smiles": "Cc1ccc(C(=O)c2sc(N)nc2-c2ccc(P(=O)(O)O)o2)cc1", "note": "[Compound 1.10, [5-(2-amino-5-(4-methylbenzoyl)thiazol-4-yl)furan-2-yl]-phosphonic acid]", "pIC50": 7.32}
{"smiles": "Cc1cccc(C(=O)c2sc(N)nc2-c2ccc(P(=O)(O)O)o2)c1", "note": "[Compound 1.11, [5-(2-amino-5-(3-methylbenzoyl)thiazol-4-yl)furan-2-yl]-phosphonic acid]", "pIC50": 7.44}
{"smiles": "Nc1nc(-c2ccc(P(=O)(O)O)o2)c(C(=O)c2cccc(Cl)c2)s1", "note": "[Compound 1.12, [5-(2-amino-5-(3-chlorobenzoyl)thiazol-4-yl)furan-2-yl]-phosphonic acid]", "pIC50": 7.14}
{"smiles": "Cc1ccccc1C(=O)c1sc(N)nc1-c1ccc(P(=O)(O)O)o1", "note": "[Compound 1.13, [5-(2-amino-5-(2-methylbenzoyl)thiazol-4-yl)furan-2-yl]-phosphonic acid]", "pIC50": 7.32}
{"smiles": "COc1ccccc1C(=O)c1sc(N)nc1-c1ccc(P(=O)(O)O)o1", "note": "[Compound 1.14, [5-(2-amino-5-(2-methoxybenzoyl)thiazol-4-yl)furan-2-yl]-phosphonic acid]", "pIC50": 6.93}
{"smiles": "COc1ccc(C(=O)c2sc(N)nc2-c2ccc(P(=O)(O)O)o2)cc1", "note": "[Compound 1.16, [5-(2-amino-5-(4-methoxybenzoyl)thiazol-4-yl)furan-2-yl]-phosphonic acid]", "pIC50": 7.21}
{"smiles": "COc1ccc(C(=O)c2sc(N)nc2-c2ccc(P(=O)(O)O)o2)cc1OC", "note": "[Compound 1.17, [5-(2-amino-5-(3,4-dimethoxybenzoyl)thiazol-4-yl)furan-2-yl]-phosphonic acid]", "pIC50": 7.03}
{"smiles": "COc1cccc(C(=O)c2sc(N)nc2-c2ccc(P(=O)(O)O)o2)c1", "note": "[Compound 1.18, [5-(2-amino-5-(3-methoxybenzoyl)thiazol-4-yl)furan-2-yl]-phosphonic acid]", "pIC50": 7.07}
{"smiles": "Nc1nc(-c2ccc(P(=O)(O)O)o2)c(C(=O)c2ccc3c(c2)OCO3)s1", "note": "[Compound 1.19, [5-(2-amino-5-(3,4-methylenedioxybenzoyl)thiazol-4-yl)-furan-2-yl]phosphonic acid]", "pIC50": 7.28}
{"smiles": "Nc1nc(-c2ccc(P(=O)(O)O)o2)c(C(=O)c2ccc(N3CCCC3)c(Cl)c2)s1", "note": "[Compound 1.21, [5-(2-amino-5-(3-chloro-4-(1-pyrrolidinyl)benzoyl)-thiazol-4-yl)furan-2-yl]-phosphonic acid]", "pIC50": 7.27}
{"smiles": "Nc1nc(-c2ccc(P(=O)(O)O)o2)c(C(=O)c2ccc(F)cc2)s1", "note": "[Compound 1.22, [5-(2-amino-5-(4-fluorobenzoyl)thiazol-4-yl)furan-2-yl]-phosphonic acid]", "pIC50": 7.48}
{"smiles": "CCC(CC)C(=O)c1sc(N)nc1-c1ccc(P(=O)(O)O)o1", "note": "[Compound 1.23, [5-(2-amino-5-(2-ethylbutyryl)thiazol-4-yl)furan-2-yl]-phosphonic acid]", "pIC50": 8.05}
{"smiles": "Nc1nc(-c2ccc(P(=O)(O)O)o2)c(C(=O)c2ccc(C(F)(F)F)cc2)s1", "note": "[Compound 1.24, [5-(2-amino-5-(4-trifluoromethylbenzoyl)thiazol-4-yl)-furan-2-yl]phosphonic acid]", "pIC50": 7.00}
